Assay results taken from patent US20240423207A1, “PICOLINAMIDE COMPOUNDS WITH FUNGICIDAL ACTIVITY” (CORTEVA AGRISCIENCE LLC, priority 2014, published 2024).
Like-named read-outs stand apart in the source and are kept apart here.

Columns and labels:
[1] = tested on: Mycosphaerella graminicola; Anamorph: Septoria tritici; assay: Leaf Blotch of Wheat (SEPTTR) fungicidal activity on wheat seedlings; type: in vivo; conditions: Zymoseptoria tritici; for pest or weed control at 121.5 g/ha: Low Volume, 121.5 g/H
Procedure: Example A: Evaluation of Fungicidal Activity: Leaf Blotch of Wheat (Mycosphaerella graminicola; Anamorph: Septoria tritici; Bayer code […]): Technical grades of materials were dissolved in acetone, which were then mixed with nine volumes of water (H2O) containing 110 ppm Triton X-100. The fungicide solutions were applied onto wheat seedlings using an automated booth sprayer to run-off. All sprayed plants were allowed to air dry prior to further handling. All fungicides were evaluated using the aforementioned method for their activity vs. all target diseases, unless stated otherwise. Wheat leaf blotch and brown rust activity were also evaluated using track spray applications, in which case the fungicides were formulated as EC formulations, containing 0.1% Trycol 5941 in the spray solutions. Wheat plants (variety Yuma) were grown from seed in a greenhouse in 50% mineral soil/50% soil-less Metro mix until the first leaf was fully emerged, with 7-10 seedlings per pot. These plants were inoculated with an aqueous spore suspension of Septoria tritici either prior to or after fungicide treatments. After inoculation the plants were kept in 100% relative humidity (one day in a dark dew chamber followed by two to three days in a lighted dew chamber at 20° C.) to permit spores to germinate and infect the leaf. The plants were then transferred to a greenhouse set at 20° C. for disease to develop. When disease symptoms were fully expressed on the 1st leaves of untreated plants, infection levels were assessed on a scale of 0 to 100 percent disease severity. Percent disease control was calculated using the ratio of disease severity on treated plants relative to untreated plants.

[2] = tested on: Puccinia triticina; Synonym: Puccinia recondita f sp. tritici; assay: Wheat Brown Rust (PUCCRT) fungicidal activity on wheat seedlings; type: in vivo; conditions: High Volume, 100 ppm
Procedure: Technical grades of materials were dissolved in acetone, which were then mixed with nine volumes of water (H2O) containing 110 ppm Triton X-100. The fungicide solutions were applied onto wheat seedlings using an automated booth sprayer to run-off. All sprayed plants were allowed to air dry prior to further handling. All fungicides were evaluated using the aforementioned method for their activity vs. all target diseases, unless stated otherwise. Wheat leaf blotch and brown rust activity were also evaluated using track spray applications, in which case the fungicides were formulated as EC formulations, containing 0.1% Trycol 5941 in the spray solutions. Wheat plants (variety Yuma) were grown from seed in a greenhouse in 50% mineral soil/50% soil-less Metro mix until the first leaf was fully emerged, with 7-10 seedlings per pot. These plants were inoculated with an aqueous spore suspension of Septoria tritici either prior to or after fungicide treatments. After inoculation the plants were kept in 100% relative humidity (one day in a dark dew chamber followed by two to three days in a lighted dew chamber at 20° C.) to permit spores to germinate and infect the leaf. The plants were then transferred to a greenhouse set at 20° C. for disease to develop. When disease symptoms were fully expressed on the 1st leaves of untreated plants, infection levels were assessed on a scale of 0 to 100 percent disease severity. Percent disease control was calculated using the ratio of disease severity on treated plants relative to untreated plants. Example B: Evaluation of Fungicidal Activity: Wheat Brown Rust (Puccinia triticina; Synonym: Puccinia recondita f sp. tritici; Bayer code PUCCRT): Wheat plants (variety Yuma) were grown from seed in a greenhouse in 50% mineral soil/50% soil-less Metro mix until the first leaf was fully emerged, with 7-10 seedlings per pot. These plants were inoculated with an aqueous spore suspension of Puccinia triticina either prior to or after fungicide treatments. After inoculation the plants were kept in a dark dew room at 22° C. with 100% relative humidity overnight to permit spores to germinate and infect the leaf. The plants were then transferred to a greenhouse set at 24° C. for disease to develop. Fungicide formulation, application and disease assessment followed the procedures as described in the Example A.

[3] = 24 h, 1 Day Protectant, read-out: PUCCRT 1DP disease control
[4] = 72 h, 3 Day Curative, read-out: PUCCRT 3DC disease control
[5] = 24 h, High Volume, 100 ppm, 1 Day Protectant, read-out: SEPTTR 1DP disease control
[6] = 72 h, High Volume, 100 ppm, 3 Day Curative, read-out: SEPTTR 3DC disease control
[7] = 24 h, 1 Day Protectant, read-out: SEPTTR 1DP disease control
[8] = 72 h, 3 Day Curative, read-out: SEPTTR 3DC disease control

| Structure (SMILES) | pest or weed control at 100 ppm ([1]; 24 h, read-out: SEPTTR 1DP disease control) | pest or weed control at 100 ppm ([1]; 72 h, read-out: SEPTTR 3DC disease control) | pest or weed control at 100 ppm [2, 3] | pest or weed control at 100 ppm [2, 4] | pest or weed control at 100 ppm [1, 5] | pest or weed control at 100 ppm [1, 6] | pest or weed control at 121.5 g/ha [1, 7] | pest or weed control at 121.5 g/ha [1, 8] |
| --- | --- | --- | --- | --- | --- | --- | --- | --- |
| COc1ccnc(C(=O)N[C@@H](C)C(=O)O[C@@H](C)C(c2ccccc2)c2ccccc2)c1O [Cmpd 90, (S)-(S)-1,1-diphenylpropan-2-yl 2-(3-hydroxy-4-methoxypicolinamido)propanoate] | > 80% | > 80% | > 80% | > 80% | – | – | – | – |
| COc1ccnc(C(=O)N[C@@H](C)C(=O)O[C@@H](C)C(c2cccs2)c2cccs2)c1O [Cmpd 91] | – | – | > 80% | < 80% | > 80% | – | – | – |
| COc1ccnc(C(=O)N[C@@H](C)C(=O)O[C@@H](C)C(c2ccc(F)cc2)c2ccc(F)cc2)c1O [Cmpd 92] | – | – | > 80% | > 80% | > 80% | > 80% | – | – |
| CCOC(c1ccccc1)(c1ccccc1)[C@H](C)OC(=O)[C@H](C)NC(=O)c1nccc(OC)c1O [Cmpd 93] | – | – | < 80% | – | > 80% | < 80% | – | – |
| COc1ccnc(C(=O)N[C@@H](C)C(=O)O[C@@H](C)C(c2ccc(F)cc2F)c2ccc(F)cc2F)c1O [Cmpd 96] | – | – | > 80% | > 80% | > 80% | > 80% | – | – |
| COc1ccnc(C(=O)N[C@@H](C)C(=O)O[C@@H](C)C(F)(c2ccccc2)c2ccccc2)c1O [Cmpd 97] | – | – | < 80% | – | > 80% | > 80% | – | – |
| COc1ccc(C(c2ccc(OC)cc2)[C@H](C)OC(=O)[C@H](C)NC(=O)c2nccc(OC)c2O)cc1 [Cmpd 98] | – | – | > 80% | > 80% | > 80% | > 80% | – | – |
| COc1ccnc(C(=O)N[C@@H](C)C(=O)O[C@@H](C)C(c2cccc(F)c2)c2cccc(F)c2)c1O [Cmpd 99] | – | – | > 80% | < 80% | > 80% | > 80% | – | – |
| COc1ccnc(C(=O)N[C@@H](C)C(=O)O[C@@H](C)C(c2cccc(Cl)c2)c2cccc(Cl)c2)c1O [Cmpd 100] | – | – | > 80% | > 80% | > 80% | > 80% | – | – |
| COc1ccnc(C(=O)N[C@@H](C)C(=O)OC(C)C2c3ccccc3-c3ccccc32)c1O (stereo partly shown) [Cmpd 101] | – | – | – | – | < 80% | – | – | – |
| COc1ccnc(C(=O)N[C@@H](C)C(=O)OC(C)C2c3ccccc3Oc3ccccc32)c1O (stereo partly shown) [Cmpd 102] | – | – | < 80% | – | < 80% | < 80% | – | – |
| COc1ccnc(C(=O)N[C@@H](C)C(=O)O[C@@H](C)C(c2ccc(Br)cc2)c2ccc(Br)cc2)c1O [Cmpd 103] | – | – | > 80% | < 80% | > 80% | > 80% | – | – |
| COc1ccnc(C(=O)N[C@@H](C)C(=O)O[C@@H](C)C(c2ccc(C)s2)c2ccc(C)s2)c1O [Cmpd 104] | – | – | > 80% | – | < 80% | > 80% | – | – |
| COc1ccnc(C(=O)N[C@@H](C)C(=O)O[C@@H](C)C(c2ccc(C)cc2)c2ccc(C)cc2)c1O [Cmpd 105] | – | – | > 80% | > 80% | > 80% | > 80% | – | – |
| COc1ccnc(C(=O)N[C@@H](C)C(=O)O[C@@H](C)[C@@H](c2ccccc2)c2ccc(C(F)(F)F)cc2)c1O [Cmpd 106] | – | – | > 80% | – | > 80% | > 80% | – | – |
| COc1ccnc(C(=O)N[C@@H](C)C(=O)O[C@@H](C)C(c2ccc(Cl)cc2)c2ccc(Cl)cc2)c1O [Cmpd 107] | – | – | > 80% | < 80% | > 80% | > 80% | – | – |

| Structure (SMILES) | pest or weed control at 100 ppm ([1]; 24 h, read-out: SEPTTR 1DP disease control) | pest or weed control at 100 ppm ([1]; 72 h, read-out: SEPTTR 3DC disease control) | pest or weed control at 100 ppm [2, 3] | pest or weed control at 100 ppm [2, 4] | pest or weed control at 100 ppm [1, 5] | pest or weed control at 100 ppm [1, 6] | pest or weed control at 121.5 g/ha [1, 7] | pest or weed control at 121.5 g/ha [1, 8] |
| --- | --- | --- | --- | --- | --- | --- | --- | --- |
| COc1ccnc(C(=O)N[C@@H](C)C(=O)O[C@@H](C)C(c2ccc(-c3ccccc3)cc2)c2ccc(-c3ccccc3)cc2)c1O [Cmpd 109] | – | – | < 80% | – | – | < 80% | – | – |
| C[C@H](NC(=O)c1ncccc1O)C(=O)O[C@@H](C)C(c1ccc(F)cc1)c1ccc(F)cc1 [Cmpd 110] | – | – | > 80% | – | > 80% | > 80% | – | – |
| CCOc1ccnc(C(=O)N[C@@H](C)C(=O)O[C@@H](C)C(c2ccc(F)cc2)c2ccc(F)cc2)c1O [Cmpd 111] | – | – | < 80% | – | < 80% | > 80% | – | – |
| C[C@H](NC(=O)c1ccccc1O)C(=O)O[C@@H](C)C(c1ccc(F)cc1)c1ccc(F)cc1 [Cmpd 112] | – | – | – | – | < 80% | < 80% | – | – |
| COc1ccnc(C(=O)NCC(=O)O[C@@H](C)C(c2ccc(F)cc2)c2ccc(F)cc2)c1O [Cmpd 113] | – | – | > 80% | < 80% | > 80% | < 80% | – | – |
| CC[C@H](NC(=O)c1nccc(OC)c1O)C(=O)O[C@@H](C)C(c1ccc(F)cc1)c1ccc(F)cc1 [Cmpd 114] | – | – | > 80% | > 80% | > 80% | > 80% | – | – |
| COc1ccnc(C(=O)N[C@H](C(=O)O[C@@H](C)C(c2ccc(F)cc2)c2ccc(F)cc2)C(C)C)c1O [Cmpd 115] | – | – | < 80% | – | > 80% | > 80% | – | – |
| COc1ccnc(C(=O)N[C@@H](C)C(=O)O[C@@H](C)C(O)(c2ccc(Cl)cc2F)c2ccc(Cl)cc2F)c1O [Cmpd 119] | – | – | – | – | > 80% | < 80% | – | – |
| COc1ccnc(C(=O)N[C@@H](C)C(=O)O[C@@H](C)C(O)(c2ccccc2F)c2ccccc2F)c1O [Cmpd 122] | – | – | – | – | < 80% | < 80% | – | – |
| COc1ccnc(C(=O)N[C@@H](C)C(=O)OC(C)C2c3ccccc3-c3ccccc32)c1OC(C)=O (stereo partly shown) [Cmpd 161] | – | – | – | – | – | – | < 80% | > 80% |
| COc1ccnc(C(=O)N[C@@H](C)C(=O)OC(C)C2c3ccccc3Oc3ccccc32)c1OC(C)=O (stereo partly shown) [Cmpd 162] | – | – | – | – | – | – | – | < 80% |
| COc1ccnc(C(=O)N[C@@H](C)C(=O)OC(C)C2c3ccccc3Oc3ccccc32)c1OCOC(C)=O (stereo partly shown) [Cmpd 164] | – | – | – | – | – | – | < 80% | – |
| CC(=O)OCOc1ccccc1C(=O)N[C@@H](C)C(=O)O[C@@H](C)C(c1ccc(F)cc1)c1ccc(F)cc1 [Cmpd 180] | – | – | – | – | – | – | < 80% | – |
| COc1ccnc(C(=O)N[C@@H](C)C(=O)O[C@@H](C)C(c2ccc(-c3ccccc3)cc2)c2ccc(-c3ccccc3)cc2)c1OCOC(C)=O [Cmpd 181] | – | – | – | – | – | – | < 80% | < 80% |
| COc1ccnc(C(=O)N[C@@H](C)C(=O)O[C@@H](C)C(O)(c2ccccc2F)c2ccccc2F)c1OCOC(C)=O [Cmpd 196] | – | – | – | – | – | – | > 80% | < 80% |
| COc1ccnc(C(=O)N[C@@H](C)C(=O)O[C@@H](C)C(O)(c2ccc(Cl)c(F)c2)c2ccc(Cl)c(F)c2)c1OCOC(C)=O [Cmpd 202] | – | – | – | – | – | – | > 80% | > 80% |
